Measured values taken from the kinase profiling compilation of Christmann-Franck et al. (2016).

Assays:
Test in all cases: KINOMEscan competition binding
Settings in all cases: compound 10.0 µM
ICK (human) = ICK (human) (UniProt Q9UPZ9)
GAK (human) = GAK (human) (UniProt O14976)
STK3 (human) = STK3 (human) (UniProt Q13188)
MAP2K1 (human) = MAP2K1 (human) (UniProt Q02750)
AURKA (human) = AURKA (human) (UniProt O14965)
CSNK1G1 (human) = CSNK1G1 (human) (UniProt Q9HCP0)
PKMYT1 (human) = PKMYT1 (human) (UniProt Q99640)
MAP3K6 (human) = MAP3K6 (human) (UniProt O95382)
[1] = biological target: JAK2 JH1 catalytic (human) (UniProt O60674)
STK24 (human) = STK24 (human) (UniProt Q9Y6E0)
TTK (human) = TTK (human) (UniProt P33981)
HIPK4 (human) = HIPK4 (human) (UniProt Q8NE63)
STK38L (human) = STK38L (human) (UniProt Q9Y2H1)
PLK3 (human) = PLK3 (human) (UniProt Q9H4B4)
OXSR1 (human) = OXSR1 (human) (UniProt O95747)
MAP2K4 (human) = MAP2K4 (human) (UniProt P45985)
MAP2K3 (human) = MAP2K3 (human) (UniProt P46734)
STK36 (human) = STK36 (human) (UniProt Q9NRP7)
[2] = tested on: RET (human), P07949 [M918T]
MST4 (human) = MST4 (human) (UniProt Q9P289)
DAPK1 (human) = DAPK1 (human) (UniProt P53355)
MAP3K11 (human) = MAP3K11 (human) (UniProt Q16584)
PHKG1 (human) = PHKG1 (human) (UniProt Q16816)
NEK9 (human) = NEK9 (human) (UniProt Q8TD19)
RIPK2 (human) = RIPK2 (human) (UniProt O43353)
[3] = tested on: KIT (human), P10721 [V559D/V654A]
MAPKAPK5 (human) = MAPKAPK5 (human) (UniProt Q8IW41)
AURKC (human) = AURKC (human) (UniProt Q9UQB9)
TLK1 (human) = TLK1 (human) (UniProt Q9UKI8)
TGFBR1 (human) = TGFBR1 (human) (UniProt P36897)
STK16 (human) = STK16 (human) (UniProt O75716)
AXL (human) = AXL (human) (UniProt P30530)
DYRK1A (human) = DYRK1A (human) (UniProt Q13627)
PRKD1 (human) = PRKD1 (human) (UniProt Q15139)
CAMK2B (human) = CAMK2B (human) (UniProt Q13554)
CDK5 (human) = CDK5 (human) (UniProt Q00535)
CAMK4 (human) = CAMK4 (human) (UniProt Q16566)
CDK14 (human) = CDK14 (human) (UniProt O94921)

Sequence of MAP2K4 (human) (P45985 whole entry, looked up): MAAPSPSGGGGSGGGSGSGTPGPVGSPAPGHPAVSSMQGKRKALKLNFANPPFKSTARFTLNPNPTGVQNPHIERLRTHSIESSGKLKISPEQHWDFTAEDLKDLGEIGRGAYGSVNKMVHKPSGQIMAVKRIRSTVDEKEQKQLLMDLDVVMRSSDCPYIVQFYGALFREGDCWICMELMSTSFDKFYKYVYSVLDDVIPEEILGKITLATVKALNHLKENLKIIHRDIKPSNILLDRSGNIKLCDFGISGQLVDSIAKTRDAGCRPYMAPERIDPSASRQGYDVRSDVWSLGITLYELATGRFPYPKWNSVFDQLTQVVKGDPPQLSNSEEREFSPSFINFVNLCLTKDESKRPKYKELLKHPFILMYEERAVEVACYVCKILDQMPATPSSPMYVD
Sequence of KIT (human), P10721 [V559D/V654A] (P10721 whole entry V559D/V654A, looked up): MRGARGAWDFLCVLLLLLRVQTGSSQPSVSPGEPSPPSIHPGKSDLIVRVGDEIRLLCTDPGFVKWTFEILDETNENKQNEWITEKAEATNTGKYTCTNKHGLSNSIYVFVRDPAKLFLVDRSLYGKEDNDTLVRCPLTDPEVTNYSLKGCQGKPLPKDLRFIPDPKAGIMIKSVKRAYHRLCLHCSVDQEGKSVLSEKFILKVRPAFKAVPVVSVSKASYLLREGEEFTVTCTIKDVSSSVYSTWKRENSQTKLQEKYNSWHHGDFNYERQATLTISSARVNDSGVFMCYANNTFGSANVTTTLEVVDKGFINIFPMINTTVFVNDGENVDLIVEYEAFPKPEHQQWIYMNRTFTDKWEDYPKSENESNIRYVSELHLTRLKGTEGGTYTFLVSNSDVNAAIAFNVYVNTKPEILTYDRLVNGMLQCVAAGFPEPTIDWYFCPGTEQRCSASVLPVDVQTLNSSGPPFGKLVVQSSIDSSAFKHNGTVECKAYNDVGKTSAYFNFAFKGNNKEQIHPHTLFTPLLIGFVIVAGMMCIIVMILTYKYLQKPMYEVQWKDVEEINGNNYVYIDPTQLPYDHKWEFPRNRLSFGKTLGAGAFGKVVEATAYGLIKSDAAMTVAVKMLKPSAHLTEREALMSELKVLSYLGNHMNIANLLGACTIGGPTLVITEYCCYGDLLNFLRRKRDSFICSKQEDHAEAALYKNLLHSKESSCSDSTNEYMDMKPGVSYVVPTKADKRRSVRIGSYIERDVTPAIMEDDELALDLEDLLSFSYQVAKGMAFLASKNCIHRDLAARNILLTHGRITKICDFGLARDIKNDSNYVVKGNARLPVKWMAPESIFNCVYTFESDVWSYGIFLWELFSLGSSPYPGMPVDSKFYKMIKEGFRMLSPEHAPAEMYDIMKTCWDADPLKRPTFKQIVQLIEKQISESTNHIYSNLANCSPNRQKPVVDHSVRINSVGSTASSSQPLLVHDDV
Sequence of RIPK2 (human) (O43353 whole entry, looked up): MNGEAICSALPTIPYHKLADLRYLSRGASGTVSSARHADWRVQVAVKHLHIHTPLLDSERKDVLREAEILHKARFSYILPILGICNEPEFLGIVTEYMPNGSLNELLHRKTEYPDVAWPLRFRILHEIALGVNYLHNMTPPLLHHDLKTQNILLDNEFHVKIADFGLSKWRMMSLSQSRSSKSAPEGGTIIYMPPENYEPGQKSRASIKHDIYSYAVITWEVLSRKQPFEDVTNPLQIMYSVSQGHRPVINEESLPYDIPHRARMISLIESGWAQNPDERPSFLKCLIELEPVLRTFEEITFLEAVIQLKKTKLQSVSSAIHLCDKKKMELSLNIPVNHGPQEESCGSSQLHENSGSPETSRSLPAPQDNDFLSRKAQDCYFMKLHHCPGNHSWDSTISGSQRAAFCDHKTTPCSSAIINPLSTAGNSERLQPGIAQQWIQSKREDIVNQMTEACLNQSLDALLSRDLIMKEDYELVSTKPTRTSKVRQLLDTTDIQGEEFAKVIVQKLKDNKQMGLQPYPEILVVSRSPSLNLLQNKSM
Sequence of MAPKAPK5 (human) (Q8IW41 whole entry, looked up): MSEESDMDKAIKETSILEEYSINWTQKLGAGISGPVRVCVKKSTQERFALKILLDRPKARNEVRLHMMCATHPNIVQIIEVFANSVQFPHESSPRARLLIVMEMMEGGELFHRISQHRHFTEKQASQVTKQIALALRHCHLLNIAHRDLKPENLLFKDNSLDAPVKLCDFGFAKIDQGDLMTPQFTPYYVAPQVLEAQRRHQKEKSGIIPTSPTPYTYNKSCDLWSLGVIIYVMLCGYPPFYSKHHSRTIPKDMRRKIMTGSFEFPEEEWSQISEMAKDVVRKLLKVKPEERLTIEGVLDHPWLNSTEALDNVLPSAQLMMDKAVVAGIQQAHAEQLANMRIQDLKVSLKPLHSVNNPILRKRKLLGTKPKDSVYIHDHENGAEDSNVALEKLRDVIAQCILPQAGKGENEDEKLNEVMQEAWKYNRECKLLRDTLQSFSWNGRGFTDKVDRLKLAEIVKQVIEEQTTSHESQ
Sequence of STK3 (human) (Q13188 whole entry, looked up): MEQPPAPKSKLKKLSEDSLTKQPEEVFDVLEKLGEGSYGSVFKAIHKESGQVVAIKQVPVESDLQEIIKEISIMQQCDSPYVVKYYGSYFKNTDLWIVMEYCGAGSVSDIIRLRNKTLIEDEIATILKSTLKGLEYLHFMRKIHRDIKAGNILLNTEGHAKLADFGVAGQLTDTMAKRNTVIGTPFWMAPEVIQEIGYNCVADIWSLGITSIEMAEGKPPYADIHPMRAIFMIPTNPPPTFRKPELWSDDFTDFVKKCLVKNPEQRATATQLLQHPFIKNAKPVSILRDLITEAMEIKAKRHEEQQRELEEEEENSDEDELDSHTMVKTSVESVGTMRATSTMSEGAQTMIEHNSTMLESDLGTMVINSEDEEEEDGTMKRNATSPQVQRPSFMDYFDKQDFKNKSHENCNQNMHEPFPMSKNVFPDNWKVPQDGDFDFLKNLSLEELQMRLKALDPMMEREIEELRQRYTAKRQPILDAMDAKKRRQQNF
Sequence of AURKA (human) (O14965 whole entry, looked up): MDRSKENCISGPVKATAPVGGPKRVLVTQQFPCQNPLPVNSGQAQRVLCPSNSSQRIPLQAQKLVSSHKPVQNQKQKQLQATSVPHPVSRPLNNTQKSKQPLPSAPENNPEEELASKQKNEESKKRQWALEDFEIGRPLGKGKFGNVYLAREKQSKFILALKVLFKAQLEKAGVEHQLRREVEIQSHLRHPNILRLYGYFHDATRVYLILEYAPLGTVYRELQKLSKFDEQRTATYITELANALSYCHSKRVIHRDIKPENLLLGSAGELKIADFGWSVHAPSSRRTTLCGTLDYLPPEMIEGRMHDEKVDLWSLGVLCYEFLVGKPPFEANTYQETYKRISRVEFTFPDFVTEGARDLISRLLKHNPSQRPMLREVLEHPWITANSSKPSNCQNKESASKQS
Sequence of HIPK4 (human) (Q8NE63 whole entry, looked up): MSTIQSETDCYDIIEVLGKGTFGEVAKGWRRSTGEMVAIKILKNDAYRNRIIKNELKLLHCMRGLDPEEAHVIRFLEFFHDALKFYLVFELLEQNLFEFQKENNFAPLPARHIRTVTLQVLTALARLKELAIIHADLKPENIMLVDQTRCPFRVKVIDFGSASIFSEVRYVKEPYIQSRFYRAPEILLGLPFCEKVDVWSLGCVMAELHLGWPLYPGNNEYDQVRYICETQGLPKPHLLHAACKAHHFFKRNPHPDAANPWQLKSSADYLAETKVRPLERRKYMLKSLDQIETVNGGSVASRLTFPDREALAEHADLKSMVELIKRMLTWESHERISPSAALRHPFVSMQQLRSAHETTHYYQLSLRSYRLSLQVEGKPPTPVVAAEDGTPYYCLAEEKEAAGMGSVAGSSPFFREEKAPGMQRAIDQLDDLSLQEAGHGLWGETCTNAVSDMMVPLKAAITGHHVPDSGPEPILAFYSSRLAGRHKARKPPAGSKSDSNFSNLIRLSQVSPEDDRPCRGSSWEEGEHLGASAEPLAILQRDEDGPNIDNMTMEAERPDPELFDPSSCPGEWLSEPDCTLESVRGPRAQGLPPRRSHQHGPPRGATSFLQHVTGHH
Sequence of NEK9 (human) (Q8TD19 whole entry, looked up): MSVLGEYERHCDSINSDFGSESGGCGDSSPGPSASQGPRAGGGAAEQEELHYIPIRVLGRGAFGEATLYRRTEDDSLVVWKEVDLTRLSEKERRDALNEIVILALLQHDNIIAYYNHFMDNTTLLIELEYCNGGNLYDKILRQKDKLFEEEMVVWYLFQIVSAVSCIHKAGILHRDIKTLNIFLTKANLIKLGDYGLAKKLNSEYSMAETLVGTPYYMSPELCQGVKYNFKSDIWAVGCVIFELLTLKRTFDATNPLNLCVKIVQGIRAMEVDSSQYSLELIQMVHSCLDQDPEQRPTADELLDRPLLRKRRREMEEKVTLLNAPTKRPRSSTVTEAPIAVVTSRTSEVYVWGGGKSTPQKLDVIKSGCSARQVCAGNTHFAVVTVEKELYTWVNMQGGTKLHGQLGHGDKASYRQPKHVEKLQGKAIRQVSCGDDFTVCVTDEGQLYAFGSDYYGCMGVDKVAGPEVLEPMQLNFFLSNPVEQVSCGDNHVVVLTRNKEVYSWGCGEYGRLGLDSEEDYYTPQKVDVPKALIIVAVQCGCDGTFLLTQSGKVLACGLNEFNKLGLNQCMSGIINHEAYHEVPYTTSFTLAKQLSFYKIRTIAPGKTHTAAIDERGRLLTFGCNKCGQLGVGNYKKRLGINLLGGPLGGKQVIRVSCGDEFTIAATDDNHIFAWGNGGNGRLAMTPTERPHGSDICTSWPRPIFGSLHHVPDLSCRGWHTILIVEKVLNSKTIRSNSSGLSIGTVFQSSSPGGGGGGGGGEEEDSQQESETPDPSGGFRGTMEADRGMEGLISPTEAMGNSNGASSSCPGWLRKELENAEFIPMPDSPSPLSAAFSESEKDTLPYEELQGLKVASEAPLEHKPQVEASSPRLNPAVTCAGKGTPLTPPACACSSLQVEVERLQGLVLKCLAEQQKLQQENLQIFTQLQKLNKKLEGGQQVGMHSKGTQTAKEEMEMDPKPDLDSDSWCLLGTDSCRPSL

SMILES | kinase still bound, per cent of control (ICK (human)) [%] | kinase still bound, per cent of control (GAK (human)) [%] | kinase still bound, per cent of control (STK3 (human)) [%] | kinase still bound, per cent of control (MAP2K1 (human)) [%] | kinase still bound, per cent of control (AURKA (human)) [%] | kinase still bound, per cent of control (CSNK1G1 (human)) [%] | kinase still bound, per cent of control (PKMYT1 (human)) [%] | kinase still bound, per cent of control (MAP3K6 (human)) [%] | kinase still bound, per cent of control [1] [%] | kinase still bound, per cent of control (STK24 (human)) [%] | kinase still bound, per cent of control (TTK (human)) [%] | kinase still bound, per cent of control (HIPK4 (human)) [%] | kinase still bound, per cent of control (STK38L (human)) [%] | kinase still bound, per cent of control (PLK3 (human)) [%] | kinase still bound, per cent of control (OXSR1 (human)) [%] | kinase still bound, per cent of control (MAP2K4 (human)) [%] | kinase still bound, per cent of control (MAP2K3 (human)) [%] | kinase still bound, per cent of control (STK36 (human)) [%] | kinase still bound, per cent of control [2] [%] | kinase still bound, per cent of control (MST4 (human)) [%] | also measured
CCN(CC)CCCCNc1ncc2c(n1)N(C)C(=O)N(c1c(Cl)c(OC)cc(OC)c1Cl)C2 | 100 | 100 | 100 | 100 | 100 | 100 | 100 | 100 | 100 | 13 | 100 | 100 | 100 | 100 | 100 | 100 | 100 | 100 | 100 | 11 | kinase still bound, per cent of control (DAPK1 (human)): 100%; kinase still bound, per cent of control (MAP3K11 (human)): 100%; kinase still bound, per cent of control (PHKG1 (human)): 100%; kinase still bound, per cent of control (NEK9 (human)): 100%; kinase still bound, per cent of control (RIPK2 (human)): 100%; kinase still bound, per cent of control [3]: 100%; kinase still bound, per cent of control (MAPKAPK5 (human)): 100%; kinase still bound, per cent of control (AURKC (human)): 100%; kinase still bound, per cent of control (TLK1 (human)): 100%; kinase still bound, per cent of control (TGFBR1 (human)): 100%; kinase still bound, per cent of control (STK16 (human)): 100%; kinase still bound, per cent of control (AXL (human)): 100%; kinase still bound, per cent of control (DYRK1A (human)): 100%; kinase still bound, per cent of control (PRKD1 (human)): 100%; kinase still bound, per cent of control (CAMK2B (human)): 100%; kinase still bound, per cent of control (CDK5 (human)): 100%; kinase still bound, per cent of control (CAMK4 (human)): 100%; kinase still bound, per cent of control (CDK14 (human)): 100%
CS(=O)(=O)N1CCN(Cc2cc3nc(-c4cccc5[nH]ncc45)nc(N4CCOCC4)c3s2)CC1 | 100 | 100 | 100 | 100 | 100 | 100 | 100 | 100 | 100 | 100 | 100 | 100 | 100 | 100 | 100 | 100 | 100 | 100 | 100 | 100 | kinase still bound, per cent of control (DAPK1 (human)): 100%; kinase still bound, per cent of control (PHKG1 (human)): 100%; kinase still bound, per cent of control (NEK9 (human)): 100%; kinase still bound, per cent of control (RIPK2 (human)): 100%; kinase still bound, per cent of control [3]: 100%; kinase still bound, per cent of control (MAPKAPK5 (human)): 100%; kinase still bound, per cent of control (AURKC (human)): 100%; kinase still bound, per cent of control (TLK1 (human)): 100%; kinase still bound, per cent of control (TGFBR1 (human)): 100%; kinase still bound, per cent of control (STK16 (human)): 100%; kinase still bound, per cent of control (AXL (human)): 100%; kinase still bound, per cent of control (DYRK1A (human)): 100%; kinase still bound, per cent of control (PRKD1 (human)): 100%; kinase still bound, per cent of control (CAMK2B (human)): 100%; kinase still bound, per cent of control (CDK5 (human)): 100%; kinase still bound, per cent of control (CAMK4 (human)): 100%; kinase still bound, per cent of control (CDK14 (human)): 100%
